Results on two molecules are retold here after patent US12410148B2, “Antibody drug conjugates” (Pharma Mar, S.A., priority 2013, dated 2025).

One data set deals with HCC-1954 cells. Description: In vitro cytotoxicity, SRB assay, 72 h dose-response. To be noted: Homo sapiens, HCC1954, 72 h, HER2+; 72 h; read-out: IC50. It counts as cell-based. An excerpt: (§1) Nature Protocols, 1, 1112-1 116.
A further data set deals with MDA-MB-231 cells. Described as above. It counts as cell-based. Conditions: Homo sapiens, MDA-MB-231, 72 h, HER2−; 72 h; read-out: IC50.
Text: as §1

Another data set concerns MCF-7 cells. The data set is described as above. It counts as cell-based. To be noted: Homo sapiens, MCF7, 72 h, HER2−; 72 h; read-out: IC50.
Text: as §1

A further data set has as its system NB-4 cells. The data set is described as follows: In vitro cytotoxicity, MTT assay, 72 h dose-response. Type of data set: cell-based. Conditions: Homo sapiens, CD13+.
For the next data set, the system named is SK-BR-3 cells. The data set is described as follows: In vitro cytotoxicity, SRB assay, 72 h dose-response. To be noted: Homo sapiens, SK-BR-3, 72 h, HER2+; 72 h; read-out: IC50. Type of data set: cell-based.
Data set [1] deals with Raji-clone #18 (null CD5 expression). The data set is described as follows: In vitro cytotoxicity, MTT assay, 72 h dose-response. Type of data set: cell-based. To be noted: Homo sapiens, C#18 (null CD5).
Protocol: (§5) Briefly, MTT solution was added to the cell cultures at a final concentration of 0.5 mg/mL, and incubated for 1 to 4 hours at 37° C. until formazan crystals are formed. Culture medium is carefully removed from the cell cultures and formazan crystals resuspended in 100 μl DMSO. […] Cell survival was expressed as percentage of control, untreated cell survival.
The test system of data set [2] is HCC-1954, SK-BR-3, MDA-MB-231 and MCF-7 cells. Description: In vitro cytotoxicity, whole breast cancer cell panel. Conditions: for IC50: Homo sapiens. From the text:
(§2) All tumor cell lines used in this study were obtained from the American Type Culture Collection (ATCC), unless otherwise indicated; BT-474 (ATCC HTB-20, Breast Ductal Carcinoma), SK-BR-3 (ATCC HTB-30, Breast Adenocarcinoma) and HCC-1954 (ATCC CRL-2338, Breast Ductal Carcinoma), all HER2+; MDA-MB-231 (ATCC HTB-26, Breast Adenocarcinoma) and MCF-7 (ATCC HTB-22 Breast Adenocarcinoma, pleural effusion), all HER2-; SK-OV-3 (ATCC HTB-77, Ovary Adenocarcinoma), HER2+; NB-4 (Acute Promyelocytic Leukemia, APL, CD13+, M. Lanotte et al. (1991) NB4, a maturation inducible cell line with t(15;17) marker isolated from a human acute promyelocytic leukemia (M3). Blood 77, 1080-1086), (CD13+) and U937 (ATCC CRL-1 593.2, Histiocytic Lymphoma, CD13+ and CD4+); Raji (ATCC CCL-86, Burkitt's Lymphoma) (CD13−, CD20+, CD5−, and CD4−); RPMI-8226 (ATCC CRM-CCL-155, Multiple Myeloma) (CD13−, CD20−, CD5− and CD4−); Karpas-299 (DSMZ ACC-31, Non-Hodgkin's Lymphoma) (CD20−, CD5+, and CD4+); MOLT-4 (ATCC CRL-1 582, Acute Lymphoblastic Leukemia, CD5+). In addition, the two Raji cell (ATCC CCL-86, Burkitt's Lymphoma) clones used in this study Raji-clone #10 (high CD5 expression) and Raji-clone18 (null CD5 expression), were provided by Dr. Juan M. Zapata (Instituto de Investigaciones Biomedicas “Alberto Sols”, CSIC-UAM, Madrid, Spain). Cells were maintained at 37° C., 5% CO 2 and 95% humidity in Dulbecco's Modified Eagle's Medium (DMEM) (for MCF and MDA-MB-231 cells), RPMI-1640 (for SK-BR-3, HCC-1954, NB-4, U937, Raji, RPMI-8226, Karpas-299, MOLT-4, Raji-clone #10 and Raji-clone #18 cells), RPMI-1640+1% ITS (for BT-474 cells) or McCOyS (for SK-OV-3 cells), all media supplemented with 10% Fetal Calf Serum (FCS) and 100 units/mL penicillin and streptomycin.
For adherent cells: A colorimetric assay using sulforhodamine B (SRB) was adapted for quantitative measurement of cell growth and cytotoxicity, as described in V. Vichai and K. Kirtikara (2006) Sulforhodamine B colorimetric assay for cytotoxicity screening. Nature Protocols, 1, 1112-1 116. Briefly, cells were seeded in 96-well microtiter plates and allowed to stand for 24 hours in drug-free medium before treatment with vehicle alone or the indicated compounds for 72 hours. For quantification, cells were washed twice with phosphate buffered saline (PBS), fixed for 15 min in 1% glutaraldehyde solution, rinsed twice with PBS, stained in 0.4% SRB-1% acetic acid solution for 30 min, rinsed several times with 1% acetic acid solution and air-dried. SRB was then extracted in 10 mM trizma base solution and the optical density measured at 490 nm in a microplate spectrophotometer. Cell survival was expressed as percentage of control, untreated cell survival.
(§3) The IC50 value refers to the concentration of compound inducing a 50% of cell death as compared to the control cell survival.
Standard dose-response (DR) curves for 72 hours were performed.

Data set [3] concerns NB4, U937, Raji and RPMI-8226 cells. The data set is described as follows: In vitro cytotoxicity, whole CD13 cell panel. Conditions: for IC50: Homo sapiens.
Text: as §2
(§4) For suspension cells: A standard metabolic assay using MTT (3-(4,5-Dimethylthiazol-2-yl)-2,5-diphenyltetrazolium bromide) was adapted for quantitative measurement of cell growth and cytotoxicity, as described in T. Mosmann (1983) Rapid colorimetric assay for cellular growth and survival: Application to proliferation and cytotoxicity assays. J. Immunol. Meth., 65, 55-63. Briefly, MTT solution was added to the cell cultures at a final concentration of 0.5 mg/mL, and incubated for 1 to 4 hours at 37° C. until formazan crystals are formed. Culture medium is carefully removed from the cell cultures and formazan crystals resuspended in 100 μl DMSO. After mixing to assure solubilization, the quantity of formazan (presumably directly proportional to the number of viable cells) is measured by recording changes in absorbance at 570 nm using a plate reading spectrophotometer. Cell survival was expressed as percentage of control, untreated cell survival.
as §3
The in vitro cytotoxic activity of ADC9 along with the parent cytotoxic Compounds 1 and 4, was evaluated against different human tumor cell lines expressing or not the CD13 receptor, including NB4 and U937 (CD13 positive cells) and Raji and RPMI-8226 (CD13 negative cells). Standard dose-response (DR) curves for 72 hours were performed.

Data set [4] concerns Raji-clone #10 (high CD5 expression). The data set is described as follows: In vitro cytotoxicity, MTT assay, 72 h dose-response. Type of data set: cell-based. Conditions: Homo sapiens.
Protocol: as §5
In data set [5] the test system is Karpas-299, U937, Raji and RPMI-8226 cells. Description: In vitro cytotoxicity, whole CD4 cell panel. To be noted: for IC50: Homo sapiens.
Text: as §2, §4, §3
The in vitro cytotoxic activity of ADC16 along with the parent cytotoxic Compounds 1, 4, and 40, was evaluated against different human cancer cell lines expressing or not the CD4 antigen, including Karpas-299 and U937 (both CD4+); Raji and RPMI-8226 (both CD4−). Standard dose-response (DR) curves for 72 hours were performed.

Data set [6] concerns Raji, RPMI-8226 and Karpas-299 cells. Description: In vitro cytotoxicity, whole CD20 cell panel. To be noted: Homo sapiens.
Text: as §2, §4, §3
The in vitro cytotoxic activity of ADC12 along with the parent cytotoxic Compounds 1, 4, and 40, was evaluated was assayed against different human cancer cell lines expressing or not the CD20 antigen, including Raji (CD20 positive cells); RPMI-8226 and Karpas-299 (CD20 negative cells). Standard dose-response (DR) curves for 72 hours were performed.

The test system of the next data set is U937 cells. The data set is described as follows: In vitro cytotoxicity, MTT assay, 72 h dose-response. To be noted: Homo sapiens, U-937, 72 h, CD13+, CD4+, read-out: IC50. It counts as cell-based, human.
Another data set has as its system RPMI-8226 cells. The data set is described as above. It counts as cell-based, human. To be noted: Homo sapiens, RPMI-8226, 72 h, CD13−, CD20−, CD5−, CD4−, read-out: IC50.
The next data set relates to Raji cells. Described as above. To be noted: Homo sapiens, Raji, CD13−, CD20+, CD5−, CD4−, read-out: IC50. It counts as cell-based, human.
Setting [7] is: read-out: IC50 values along the different cell lines tested (range), four breast cell lines.
[8] abbreviates: read-out: mean IC50 value across the whole cell panel, four breast cell lines.
Where [9] appears, read: read-out: IC50 values across the different cell lines tested (range).
The mark [10] stands for this setting: read-out: mean IC50 value across the whole cell panel.
Setting [11] is: long maleimide containing linker.

pIC50: −log10 of the molar value. Values after ≈ are worked out from the molar mass of the structure shown. Values joined by “and” are separate entries in the source; they are usually repeats but may differ in a detail not shown here. Equal entries are not always repeated. Where two headings read alike, the source gives them in different places.

Protocol for NB-4 cells: as §5
Protocol for Raji cells: as §5
Text for SK-BR-3 cells: All tumor cell lines used in this study were obtained from the American Type Culture Collection (ATCC), unless otherwise indicated; BT-474 (ATCC HTB-20, Breast Ductal Carcinoma), SK-BR-3 (ATCC HTB-30, Breast Adenocarcinoma) and HCC-1954 (ATCC CRL-2338, Breast Ductal Carcinoma), all HER2+; MDA-MB-231 (ATCC HTB-26, Breast Adenocarcinoma) and MCF-7 (ATCC HTB-22 Breast Adenocarcinoma, pleural effusion), all HER2-; SK-OV-3 (ATCC HTB-77, Ovary Adenocarcinoma), HER2+; NB-4 (Acute Promyelocytic Leukemia, APL, CD13+, M. Lanotte et al. (1991) NB4, a maturation inducible cell line with t(15;17) marker isolated from a human acute promyelocytic leukemia (M3). […] Cells were maintained at 37° C., 5% CO 2 and 95% humidity in Dulbecco's Modified Eagle's Medium (DMEM) (for MCF and MDA-MB-231 cells), RPMI-1640 (for SK-BR-3, HCC-1954, NB-4, U937, Raji, RPMI-8226, Karpas-299, MOLT-4, Raji-clone #10 and Raji-clone #18 cells), RPMI-1640+1% ITS (for BT-474 cells) or McCOyS (for SK-OV-3 cells), all media supplemented with 10% Fetal Calf Serum (FCS) and 100 units/mL penicillin and streptomycin.
For adherent cells: A colorimetric assay using sulforhodamine B (SRB) was adapted for quantitative measurement of cell growth and cytotoxicity, as described in V. Vichai and K. Kirtikara (2006) Sulforhodamine B colorimetric assay for cytotoxicity screening. […] Briefly, cells were seeded in 96-well microtiter plates and allowed to stand for 24 hours in drug-free medium before treatment with vehicle alone or the indicated compounds for 72 hours. For quantification, cells were washed twice with phosphate buffered saline (PBS), fixed for 15 min in 1% glutaraldehyde solution, rinsed twice with PBS, stained in 0.4% SRB-1% acetic acid solution for 30 min, rinsed several times with 1% acetic acid solution and air-dried. SRB was then extracted in 10 mM trizma base solution and the optical density measured at 490 nm in a microplate spectrophotometer. Cell survival was expressed as percentage of control, untreated cell survival.
Protocol for U937 cells: as §5

Consider `COC1=CC[C@@H]([C@@H](C)/C=C(C)/C=C\C=C/C(=O)N[C@H](C(=O)N/C=C\C[C@H](C/C=C(\C)Cl)OC(=O)NCCCNC(=O)OCc2ccc(NC(=O)[C@H](CCCNC(N)=O)NC(=O)[C@@H](NC(=O)CCCCCN3C(=O)C=CC3=O)C(C)C)cc2)C(C)(C)C)OC1=O` [Compound 12], for which the 50% inhibitory concentration (IC50) with HCC-1954 cells is 0.0076 µg/mL and 6.02 nM; in the data set with MDA-MB-231 cells it was 0.018 µg/mL and 14.3 nM; in the data set with MCF-7 cells, 0.0305 µg/mL and 24.2 nM; with NB-4 cells, 0.00445 µg/mL and 3.53 nM; with SK-BR-3 cells, 0.00905 µg/mL and 7.18 nM; in [1], > 792 nM and > 1 µg/mL. In addition, the IC50 in data set [2] (setting [7]) is 0.0076 µg/mL to 0.0305 µg/mL and 6.02 nM to 24.2 nM; in data set [2] (setting [8]), 0.0163 µg/mL and 12.9 nM; in [3] (setting [9]) it was 0.0044 µg/mL to 0.048 µg/mL and 3.5 nM to 38 nM; in data set [3] (setting [10]) it was 0.02 µg/mL and 16 nM; in data set [4] (C#10 (high CD5)), 0.27 µg/mL and 214 nM; in data set [5] (setting [9]), 0.073 µg/mL to 0.41 µg/mL and 58 nM to 320 nM. In addition, the half-inhibitory concentration (IC50) in [5] (setting [10]) was 0.17 µg/mL and 130 nM; in data set [6] (setting [9]), 0.022 µg/mL to 0.067 µg/mL and 18 nM to 55 nM; in data set [6] (setting [10]), 0.039 µg/mL and 31 nM. In addition, the IC20 in data set [1] was 0.2 µg/mL and 159 nM; in [4] (C#10 (high CD5)), 0.15 µg/mL and 119 nM. The “decrease of cytotoxic activity as compared to Compound 4” value in data set [3] (long linker) was approximately 1 log. This molecule also had a pIC50 in data set [4] (clone #10, CD5 expressing) of 6.67. In addition, the “reduction of cytotoxic activity as compared to Compound 4” value in [5] (setting [11]) is approximately 2 log. For the same molecule, the “reduction of cytotoxic activity as compared to Compound 40” value in data set [5] (setting [11]) was approximately 3 log.
As for `COC1=CC[C@@H]([C@@H](C)/C=C(C)/C=C\C=C/C(=O)N[C@H](C(=O)N/C=C\C[C@H](C/C=C(\C)Cl)OC(=O)NCCCNC(=O)CCS)C(C)(C)C)OC1=O` [Compound 13], the IC50 in the data set on HCC-1954 cells is 0.00149 µg/mL and 1.98 nM; in the data set on MDA-MB-231 cells it was 0.00263 µg/mL and 3.5 nM; in the data set with MCF-7 cells, 0.00243 µg/mL and 3.23 nM; in the data set on NB-4 cells, 0.0017 µg/mL and 2.26 nM; with U937 cells it was 0.00285 µg/mL and 3.8 nM; in the data set with SK-BR-3 cells, 0.000795 µg/mL and 1.06 nM. Moreover, the IC50 in data set [2] (setting [7]) was 0.795 to 2.63 ng/mL (≈ 1.06 to 3.5 nM); in data set [2] (setting [8]) it was 0.00183 µg/mL and 2.44 nM; in [3] (setting [9]) it was 0.0017 µg/mL to 0.01 µg/mL and 2.7 nM to 14 nM; in data set [3] (setting [10]), 0.0043 µg/mL and 5.7 nM; in the data set with RPMI-8226 cells, 0.0023 µg/mL and 3.06 nM; in the data set with Raji cells it was 0.0103 µg/mL and 13.7 nM. Also, the “decrease of cytotoxic activity as compared to Compound 4” value in data set [2] (thiol containing tail) is “about 5 fold”. Moreover, the “reduction of cytotoxic activity as compared to Compound 40” value in data set [3] (thiol containing tail) is given as “less than 1 log”.
